The record followed here is patent US20150376225A1, “NOVEL COMPOUNDS OF 11BETA-HYDROXY-STEROIDS FOR USE IN MITOCHONDRIA BIOGENESIS AND DISEASES ASSOCIATED WITH MITOCHONDRIAL DYSFUNCTION OR DEPLETION” (SPHAERA PHARMA PVTD. LTD., priority 2013, published 2015).

One test concerns BCAEC. As to the kind of experiment: 3-(4,5-Dimethylthiazol-2-yl)-2,5-diphenyltetrazolium bromide (MTT) assay, mitochondrial function (MTT/Methylene Blue ratio). Conditions: treated for 48 hours. Format: cell-based, bovine. The protocol: 3-(4,5-Dimethylthiazol-2-yl)-2,5-diphenyltetrazolium bromide (MTT) assay
6,000 BCAEC were seeded into clear 96-well flat bottom plates at 100 μl per well. After starvation, cells were treated for 48 hours with the corresponding compounds. Compounds were changed every 12 and 24 hours (with 100 μl per well of fresh medium). Following the treatment medium was aspirated from plates, and washed once with 100 μl HBSS, subsequently 100 μl per well 0.5 mg/ml MTT in phenol red-free DMEM was added. Plates were incubated for 1 hour at 37° C., and this was followed by aspiration of MTT solution, addition of 100 μl per well DMSO to dissolve formazan crystals, and incubation at 37° C. for 15 minutes. Mitochondrial function was quantified by absorbance was measured at 540 nm with background substraction at 670 nm using. After MTT absorbance measure, media was removed and cells quantify in each well as described elsewhere (Oliver et al, 1989) with some modifications. In brief, 100 μl of 10% formol saline to each well was added, and incubated at 4° C. for 24 hours. Next, formol solution was removed from the wells and 100 μl of filtered 0.1% (w/v) Methylene Blue in 0.01 M borate buffer (pH 8.5) was added to each well. After 30 minutes, excess dye was removed and washed off 3 times with 0.01 M borate buffer (pH 8.5). […] The plates were then gently shaken and incubated for 15 minutes under a bench rocker. Absorbance was measured at 650 nm. The MTT/Methylene Blue ratio was used to quantify the mitochondrial function. Oliver M H, Harrison N K, Bishop J E, Cole P J, Lauren G J. A rapid and convenient assay for counting cells cultured in microwell plates: application for assessment of growth factors. J Cell Sci. 1989, 3:513-8.
Regarding `CC1([C@H]2CC[C@H]3[C@@H]4CC=C5C[C@@H](O)CC[C@]5(C)[C@H]4[C@@H](O)C[C@]23C)OCCO1` [Compound 1001, (3S,8S,9S,10R,11S,13S,14S,17S)-10,13-dimethyl-17-(2-methyl-1,3-dioxolan-2-yl)-2,3,4,7,8,9,10,11,12,13,14,15,16,17-tetradecahydro-1H-cyclopenta[a]phenanthrene-3,11-diol], the “MTT Assay” value is listed as “+ (+ indicates >110%)”. Take `CC(O)[C@H]1CC[C@H]2[C@@H]3CC=C4C[C@@H](O)CC[C@]4(C)[C@H]3[C@@H](O)C[C@]12C` (stereo partly drawn) [Compound 1003, (3S,8S,9S,10R,11S,13S,14S,17S)-17-(1-hydroxyethyl)-10,13-dimethyl-2,3,4,7,8,9,10,11,12,13,14,15,16,17-tetradecahydro-1H-cyclopenta[a]phenanthrene-3,11-diol]: the “MTT Assay” value is “+ (+ indicates >110%)”.

For `CC(=O)[C@H]1CC[C@H]2[C@@H]3CCC4=CC(=O)CC[C@]4(C)[C@H]3[C@@H](O)C[C@]12C` [Compound 1007, (8S,9S,10R,11S,13S,14S,17S)-17-acetyl-11-hydroxy-10,13-dimethyl-6,7,8,9,10,11,12,13,14,15,16,17-dodecahydro-1H-cyclopenta[a]phenanthren-3(2H)-one], the “MTT Assay” value is “+ (+ indicates >110%)”.

For the next test, the system named is oxidative phosphorylation complex I. Description: Slot blot method, complex I normalized to GAPDH. Format: cell-based, bovine.
Conditions: not given
How it is done:
Following treatment, bovine aortic endothelial cells grown in 12 well plates are scrapped in 50 μl of lysis buffer (1% Triton X-100, 20 mm Tris, 140 mm NaCl, 2 mm EDTA, and 0.1% SDS) with protease and phosphatase inhibitor cocktails (P2714 and P2850, Sigma-Aldrich) supplemented with 0.15 mm PMSF, 5 mm Na3VO4 and 3 mm NaF. Homogenates are passed through an insulin syringe five times, sonicated for 30 min at 4° C. and centrifuged (12,000 g) for 10 min. The total protein content is measured in the supernatant using the Bradford method. A total of 10-20 μg of protein are loaded into a pre-assembled slot blot apparatus to be transferred under vacuum onto polyvinyl membranes, incubated for 1 h in blocking solution (5% non-fat dry milk in TBS plus 0.1% Tween 20 (TBS-T)), followed by a overnight incubation at 4° C. with primary antibodies (oxidative phosphorylation complex I or GAPDH). Primary antibodies are diluted in TBS-T plus 5% non-fat dry milk. Membranes are washed (3× for 5 min) in TBS-T and incubated 1 h at room temperature in the presence of HRP-conjugated secondary antibodies diluted in blocking solution. Membranes are again washed 3 times in TBS-T, and the immunoblots developed using an ECL Plus detection kit (Amersham-GE). Band intensities are digitally quantified using ImageJ software (http://www.nih.gov). Complex I values are normalized for loading differences using GAPDH after stripping and reprobing of the membrane. All Western blot images to be obtained will be within the linear range of X-ray film to ensure computer-assisted densitometry accuracy.
As for `CC(=O)[C@H]1CC[C@H]2[C@@H]3CC=C4C[C@@H](O)CC[C@]4(C)[C@H]3[C@@H](O)C[C@]12C` [Compound 1002, 1-((3S,8S,9S,10R,11S,13S,14S,17S)-3,11-dihydroxy-10,13-dimethyl-2,3,4,7,8,9,10,11,12,13,14,15,16,17-tetradecahydro-1H-cyclopenta[a]phenanthren-17-yl)ethanone], the “Slot Blot Assay” value is “+ (+ indicates >150% HCAEC)”.

For the molecule `COC(=O)[C@H]1CC[C@H]2[C@@H]3CC=C4C[C@@H](O)CC[C@]4(C)[C@H]3[C@@H](O)C[C@]12C` [Compound 1004, (3S,8S,9S,10R,11S,13S,14S,17S)-methyl 3,11-dihydroxy-10,13-dimethyl-2,3,4,7,8,9,10,11,12,13,14,15,16,17-tetradecahydro-1H-cyclopenta[a]phenanthrene-17-carboxylate], the “Slot Blot Assay” value is “+ (+ indicates >150% HCAEC)”. For the molecule `CC[C@H]1CC[C@H]2[C@@H]3CC=C4C[C@@H](O)CC[C@]4(C)[C@H]3[C@@H](O)C[C@]12C` [Compound 1009, (3S,8S,9S,10R,11S,13R,14S,17S)-17-ethyl-10,13-dimethyl-2,3,4,7,8,9,10,11,12,13,14,15,16,17-tetradecahydro-1H-cyclopenta[a]phenanthrene-3,11-diol], the “Slot Blot Assay” value was “+ (+ indicates >150% HCAEC)”. Still for that read-out and setting: to `Cc1noc([C@H]2CC[C@H]3[C@@H]4CCC5=CC(=O)CC[C@]5(C)[C@H]4[C@@H](O)C[C@]23C)n1` [Compound 1012, (8S,9S,10R,11S,13S,14S,17S)-11-hydroxy-10,13-dimethyl-17-(3-methyl-1,2,4-oxadiazol-5-yl)-6,7,8,9,10,11,12,13,14,15,16,17-dodecahydro-1H-cyclopenta[a]phenanthren-3(2H)-one] belongs “+ (+ indicates >150% HCAEC)”.

The next test has as its system AMPK. As to the kind of experiment: AMPK activation, cell based ELISA in Hep G2 cells. To be noted: 1 h incubation, DMSO control as 100%. The protocol:
AMPK Activation Protocol:
AMPK activation potential of the compounds was evaluated using cell based ELISA.
Hepatoma (Hep G2) liver cells were maintained in a T 75 culture flask-containing 25 mM DMEM+10% fetal calf serum. The cells were maintained in a T 75 culture flask-containing medium (DMEM+10% fetal calf serum). On reaching a confluence of 70 to 80%, the cells were seeded in a 96 well plate at a density of 40,000 cells per well in 25 mM DMEM+10% FCS medium. The plates were then incubated at 37° C. with 5% CO2 for 24 hours. Various concentrations of drugs were prepared in DMSO and diluted to required concentration with the medium and incubated at 37° C. with 5% CO2 for 30 min and 1 h for Epicatechin analogs and 11-BHP analogs respectively. Metformin was used as positive control. Cells were fixed with 4% formaldehyde for 30 minutes at room temperature and washed three times with PBS containing 0.1% Triton X-100. Endogenous peroxidase was quenched with 1% H2O2 in PBS-T (0.1% Tween 20) for 30 minutes and washed three times in PBS-T. Cells were blocked with 1% BSA in PBS-T for 1 hour.
In the case of `CC(=O)[C@H]1CCC2C3CC=C4C[C@@H](O)CC[C@]4(C)C3[C@@](C)(O)C[C@@]21C` (stereo partly drawn) [Compound 1047, 1-((3S,10R,11S,13S,17S)-3,11-dihydroxy-10,11,13-trimethyl-2,3,4,7,8,9,10,11,12,13,14,15,16,17-tetradecahydro-1H-cyclopenta[a]phenanthren-17-yl)ethan-1-one], the “% activation pAMPK at 1 nM” value was 119%.

Consider `C[C@]12C[C@H](O)C3C(CCC4=CC(=O)CC[C@@]43C)C1CCC2C(=O)CO` (stereo partly drawn) [Compound 1048, (10R,11S,13S)-11-hydroxy-17-(2-hydroxyacetyl)-10,13-dimethyl-1,2,6,7,8,9,10,11,12,13,14,15,16,17-tetradecahydro-3H-cyclopenta[a]phenanthren-3-one], for which the “% activation pAMPK at 1 nM” value was 108%.
